In PubChem BioAssay AID1982 (Sanford-Burnham Center for Chemical Genomics, 2009):
The source made the active and inactive calls. The rule behind the calls is not given here.

Tests used:
Test in all cases: kinase panel binding selectivity, selectivity assay, biochemical, KINOMEscan (AID 1982)
[1] = test system: PHKG1; conditions: KINOMEscan 353-kinase binding panel, qPCR, at 10 µM, hits give low values
[2] = biological target: Proto-oncogene tyrosine-protein kinase receptor Ret (Homo sapiens) (UniProt P07949); conditions: KINOMEscan 353-kinase binding panel, qPCR, at 10 µM, hits give low values
Proto-oncogene tyrosine-protein kinase receptor Ret (Homo sapiens), sequence (P07949 whole entry, looked up): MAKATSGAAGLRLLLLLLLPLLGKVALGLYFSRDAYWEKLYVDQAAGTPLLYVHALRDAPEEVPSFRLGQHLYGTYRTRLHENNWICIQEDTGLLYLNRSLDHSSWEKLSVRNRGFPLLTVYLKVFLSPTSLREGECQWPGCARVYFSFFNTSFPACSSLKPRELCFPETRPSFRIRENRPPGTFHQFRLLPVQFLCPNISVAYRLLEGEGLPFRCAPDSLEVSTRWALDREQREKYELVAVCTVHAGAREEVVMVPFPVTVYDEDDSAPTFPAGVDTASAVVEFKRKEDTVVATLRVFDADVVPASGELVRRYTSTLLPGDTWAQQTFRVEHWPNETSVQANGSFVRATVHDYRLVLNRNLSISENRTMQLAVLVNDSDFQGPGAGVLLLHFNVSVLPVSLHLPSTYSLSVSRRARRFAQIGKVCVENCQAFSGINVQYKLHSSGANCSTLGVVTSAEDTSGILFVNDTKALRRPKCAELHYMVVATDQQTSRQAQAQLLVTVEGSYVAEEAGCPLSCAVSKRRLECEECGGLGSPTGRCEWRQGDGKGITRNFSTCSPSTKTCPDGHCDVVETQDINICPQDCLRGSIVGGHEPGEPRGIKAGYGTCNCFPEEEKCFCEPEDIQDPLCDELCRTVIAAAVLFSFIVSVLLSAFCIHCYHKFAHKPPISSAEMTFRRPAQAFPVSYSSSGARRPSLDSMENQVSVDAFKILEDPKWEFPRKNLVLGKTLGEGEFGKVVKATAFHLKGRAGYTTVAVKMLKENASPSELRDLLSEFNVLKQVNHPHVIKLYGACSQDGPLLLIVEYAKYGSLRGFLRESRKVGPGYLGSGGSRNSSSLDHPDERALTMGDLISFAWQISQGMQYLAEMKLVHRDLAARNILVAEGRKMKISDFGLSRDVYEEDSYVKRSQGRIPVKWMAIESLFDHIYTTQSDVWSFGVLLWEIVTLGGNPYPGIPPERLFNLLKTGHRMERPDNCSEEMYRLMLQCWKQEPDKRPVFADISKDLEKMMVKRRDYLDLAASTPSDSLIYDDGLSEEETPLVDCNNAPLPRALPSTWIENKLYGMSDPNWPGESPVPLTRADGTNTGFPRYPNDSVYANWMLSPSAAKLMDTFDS

[3] = biological target: Fibroblast growth factor receptor 1 (Homo sapiens) (UniProt P11362); conditions: KINOMEscan 353-kinase binding panel, qPCR; FGFR1; at 10 µM; hits give low values
Fibroblast growth factor receptor 1 (Homo sapiens), sequence (P11362 whole entry, looked up): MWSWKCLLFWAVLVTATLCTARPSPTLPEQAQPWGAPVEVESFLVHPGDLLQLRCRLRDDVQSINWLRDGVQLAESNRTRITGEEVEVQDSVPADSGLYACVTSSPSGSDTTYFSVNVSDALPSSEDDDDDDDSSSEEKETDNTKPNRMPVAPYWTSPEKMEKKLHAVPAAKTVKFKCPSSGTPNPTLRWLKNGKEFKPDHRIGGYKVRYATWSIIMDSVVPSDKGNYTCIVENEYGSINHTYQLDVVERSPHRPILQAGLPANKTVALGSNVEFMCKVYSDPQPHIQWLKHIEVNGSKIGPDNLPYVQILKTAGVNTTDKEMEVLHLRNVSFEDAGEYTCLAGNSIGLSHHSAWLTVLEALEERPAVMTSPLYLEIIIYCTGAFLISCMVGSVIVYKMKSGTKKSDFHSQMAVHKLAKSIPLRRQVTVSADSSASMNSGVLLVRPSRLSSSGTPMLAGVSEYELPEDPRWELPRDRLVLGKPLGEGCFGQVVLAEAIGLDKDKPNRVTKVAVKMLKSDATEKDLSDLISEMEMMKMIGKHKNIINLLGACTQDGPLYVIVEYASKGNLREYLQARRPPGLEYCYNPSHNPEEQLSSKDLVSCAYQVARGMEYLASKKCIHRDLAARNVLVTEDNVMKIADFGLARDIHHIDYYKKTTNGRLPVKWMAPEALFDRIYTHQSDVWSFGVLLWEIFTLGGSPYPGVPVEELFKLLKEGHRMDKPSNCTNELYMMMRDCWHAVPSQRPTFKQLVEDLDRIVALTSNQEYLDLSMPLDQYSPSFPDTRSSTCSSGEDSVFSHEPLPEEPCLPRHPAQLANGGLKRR

[4] = biological target: Uncharacterized serine/threonine-protein kinase SBK3 (Homo sapiens) (UniProt P0C264); conditions: KINOMEscan 353-kinase binding panel, qPCR; SgK110; at 10 µM; hits give low values
Uncharacterized serine/threonine-protein kinase SBK3 (Homo sapiens), sequence (P0C264 whole entry, looked up): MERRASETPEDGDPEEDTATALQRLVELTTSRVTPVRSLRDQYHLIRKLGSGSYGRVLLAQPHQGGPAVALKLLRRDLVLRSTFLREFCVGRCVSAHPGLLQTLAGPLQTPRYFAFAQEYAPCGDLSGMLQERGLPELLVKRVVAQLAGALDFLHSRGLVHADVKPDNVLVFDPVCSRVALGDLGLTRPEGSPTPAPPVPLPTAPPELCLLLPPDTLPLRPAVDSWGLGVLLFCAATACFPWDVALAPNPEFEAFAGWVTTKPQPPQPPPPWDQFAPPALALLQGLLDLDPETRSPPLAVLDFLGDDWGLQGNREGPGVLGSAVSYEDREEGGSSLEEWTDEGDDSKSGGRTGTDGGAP

[5] = test system: RIOK3; conditions: KINOMEscan 353-kinase binding panel, qPCR, at 10 µM, hits give low values
[6] = biological target: cAMP-dependent protein kinase catalytic subunit alpha (Homo sapiens) (UniProt P17612); conditions: KINOMEscan 353-kinase binding panel, qPCR; PKAC-alpha; at 10 µM; hits give low values
[7] = biological target: Vascular endothelial growth factor receptor 1 (Homo sapiens) (UniProt P17948); conditions: KINOMEscan 353-kinase binding panel, qPCR; FLT1; at 10 µM; hits give low values
Vascular endothelial growth factor receptor 1 (Homo sapiens), sequence (P17948 whole entry, looked up): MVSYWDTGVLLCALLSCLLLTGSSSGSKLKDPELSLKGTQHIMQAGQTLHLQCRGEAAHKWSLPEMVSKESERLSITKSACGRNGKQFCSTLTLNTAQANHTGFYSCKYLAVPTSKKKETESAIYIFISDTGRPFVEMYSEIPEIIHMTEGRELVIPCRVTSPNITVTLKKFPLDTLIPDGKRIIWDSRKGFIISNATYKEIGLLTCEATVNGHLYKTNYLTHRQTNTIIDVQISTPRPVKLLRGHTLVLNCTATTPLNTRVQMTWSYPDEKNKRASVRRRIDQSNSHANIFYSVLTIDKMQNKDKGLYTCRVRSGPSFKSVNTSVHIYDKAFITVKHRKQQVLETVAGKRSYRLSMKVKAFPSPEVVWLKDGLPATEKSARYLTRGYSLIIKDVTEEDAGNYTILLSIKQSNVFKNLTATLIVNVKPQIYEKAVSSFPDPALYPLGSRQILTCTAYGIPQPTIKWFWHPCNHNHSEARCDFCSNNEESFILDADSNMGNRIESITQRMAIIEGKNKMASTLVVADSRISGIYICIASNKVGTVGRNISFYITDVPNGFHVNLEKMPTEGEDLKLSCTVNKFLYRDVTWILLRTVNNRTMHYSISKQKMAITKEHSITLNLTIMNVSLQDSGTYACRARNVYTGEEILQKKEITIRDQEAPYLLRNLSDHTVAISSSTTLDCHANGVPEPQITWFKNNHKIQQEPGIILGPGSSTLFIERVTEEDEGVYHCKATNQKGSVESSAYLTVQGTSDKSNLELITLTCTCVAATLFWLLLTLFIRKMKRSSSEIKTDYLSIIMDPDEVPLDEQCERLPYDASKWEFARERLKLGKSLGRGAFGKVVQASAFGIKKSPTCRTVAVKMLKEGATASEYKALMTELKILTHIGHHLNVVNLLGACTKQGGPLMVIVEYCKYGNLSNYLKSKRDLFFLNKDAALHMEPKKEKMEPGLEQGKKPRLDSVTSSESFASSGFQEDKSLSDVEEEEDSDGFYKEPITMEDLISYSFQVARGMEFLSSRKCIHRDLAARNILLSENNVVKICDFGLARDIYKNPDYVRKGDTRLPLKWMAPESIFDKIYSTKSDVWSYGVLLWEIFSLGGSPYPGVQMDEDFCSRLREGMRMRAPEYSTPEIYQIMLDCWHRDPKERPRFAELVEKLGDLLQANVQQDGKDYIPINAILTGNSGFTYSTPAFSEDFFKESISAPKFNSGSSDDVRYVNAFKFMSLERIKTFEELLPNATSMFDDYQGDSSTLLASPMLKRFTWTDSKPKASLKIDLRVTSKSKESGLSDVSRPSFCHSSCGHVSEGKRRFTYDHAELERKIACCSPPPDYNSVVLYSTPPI

[8] = test system: LOK; conditions: KINOMEscan 353-kinase binding panel, qPCR, at 10 µM, hits give low values
[9] = biological target: RAC-gamma serine/threonine-protein kinase (Homo sapiens) (UniProt Q9Y243); conditions: KINOMEscan 353-kinase binding panel, qPCR; AKT3; at 10 µM; hits give low values
RAC-gamma serine/threonine-protein kinase (Homo sapiens), sequence (Q9Y243 whole entry, looked up): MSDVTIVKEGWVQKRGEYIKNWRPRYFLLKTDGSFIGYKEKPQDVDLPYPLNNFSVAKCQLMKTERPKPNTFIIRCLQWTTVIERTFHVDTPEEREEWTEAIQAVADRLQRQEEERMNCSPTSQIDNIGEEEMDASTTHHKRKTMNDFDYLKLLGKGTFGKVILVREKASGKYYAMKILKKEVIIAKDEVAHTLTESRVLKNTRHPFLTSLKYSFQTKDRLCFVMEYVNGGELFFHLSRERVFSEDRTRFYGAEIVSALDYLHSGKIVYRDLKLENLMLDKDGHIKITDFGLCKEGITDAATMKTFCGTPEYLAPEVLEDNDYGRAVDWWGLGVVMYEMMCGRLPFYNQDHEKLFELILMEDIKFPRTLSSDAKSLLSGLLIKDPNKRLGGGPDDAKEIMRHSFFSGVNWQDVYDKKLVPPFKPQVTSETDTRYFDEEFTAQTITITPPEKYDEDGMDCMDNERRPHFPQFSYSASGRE

percent of control binding [1]: 100% (inactive)
percent of control binding [2]: 97% (inactive)
percent of control binding ([2]; RET(M918T)): 100% (inactive)
percent of control binding ([2]; RET(V804L)): 100% (inactive)
percent of control binding ([2]; RET(V804M)): 99% (inactive)
percent of control binding [3]: 100% (inactive)
percent of control binding [4]: 96% (inactive)
percent of control binding [5]: 100% (inactive)
percent of control binding [6]: 94% (inactive)
percent of control binding [7]: 100% (inactive)
percent of control binding [8]: 95% (inactive)
percent of control binding [9]: 100% (inactive)
Compound: Cc1cc2nc(NCCCO)n(CC(=O)c3cc(C(C)(C)C)c(O)c(C(C)(C)C)c3)c2cc1C
